According to PMC11256326, “Discovery of Heparin Mimetic, Potent, and Selective Inhibitors of Human Clotting Factor XIIIa” (ACS Omega, 2024):
“And” between values parts separate entries of the source, which are not always exact repeats. Equal entries are not always repeated. Where two headings read alike, the source gives them in different places. Marks after values point to notes of the source that are not given here.

Tests used:
FXIIIa [1] = biological target: T1, FXIIIa (Homo sapiens, UniProt P00488); assay: bisubstrate, fluorescence-based trans-glutamination assay; format: biochemical; conditions: for HS (Hill slope), FXIIIa inhibition: logistic fit eq 1; for IC50: pH 7.4, 37 °C, substrates dansylcadaverine and N,N-dimethylcasein
T1 construct: purchased Haematologic Technologies; host or cells: human plasma
T1 sequence (P00488 39-732 limits assumed): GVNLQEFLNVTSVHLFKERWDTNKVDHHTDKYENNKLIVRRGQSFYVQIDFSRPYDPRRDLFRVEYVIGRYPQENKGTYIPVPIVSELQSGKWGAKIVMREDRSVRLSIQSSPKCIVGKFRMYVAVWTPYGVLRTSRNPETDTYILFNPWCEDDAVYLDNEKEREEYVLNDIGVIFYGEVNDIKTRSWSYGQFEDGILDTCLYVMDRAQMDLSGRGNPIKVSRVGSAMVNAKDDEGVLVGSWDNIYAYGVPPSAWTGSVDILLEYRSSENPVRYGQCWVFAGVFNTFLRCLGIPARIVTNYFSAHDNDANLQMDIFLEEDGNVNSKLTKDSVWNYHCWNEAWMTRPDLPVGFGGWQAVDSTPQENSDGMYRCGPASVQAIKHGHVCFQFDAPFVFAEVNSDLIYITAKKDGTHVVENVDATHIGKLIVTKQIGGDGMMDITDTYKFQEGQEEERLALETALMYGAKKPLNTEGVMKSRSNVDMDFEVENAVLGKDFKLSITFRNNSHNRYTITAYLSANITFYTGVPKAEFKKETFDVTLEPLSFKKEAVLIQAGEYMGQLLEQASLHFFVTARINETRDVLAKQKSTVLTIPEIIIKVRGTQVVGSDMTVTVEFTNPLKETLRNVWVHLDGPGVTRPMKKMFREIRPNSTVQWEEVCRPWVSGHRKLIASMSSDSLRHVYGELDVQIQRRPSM
Text: A series of 27 sulfonated molecules (Figure 3) was screened for inhibition of human FXIIIa using a modified bisubstrate, fluorescence-based trans-glutamination assay, as described earlier.[36],[49] Dansylcadaverine and N,N-dimethylcasein were used as two substrates, which upon FXIIIa-dependence conjugation show a marked increase in fluorescence at 550 nm (λEX = 360 nm). The sulfonated molecules were structurally diverse given their number of anionic groups (mono- (inhibitors 24–27) to octa- (inhibitor 9)), number of building blocks (monomeric (molecules 26–29) to […] (inhibitor 14)), and the nature of the building block of oligomeric derivatives (benzamide derivatives (inhibitors 3–10, 24, and 25), triazine derivatives (inhibitors 11–14), and azo-naphthalene derivatives (molecules 15–22), and ureido-naphthalene derivative (23)) (Figure 3).
To measure the potency and efficacy of these inhibitors, the dose-dependence of FXIIIa inhibition was evaluated using logistic eq 1 (Table 1). The potency of inhibition refers to the IC50 (x-axis), whereas the efficacy refers to the net change in residual FXIIIa activity (ΔY%) (y-axis). Iodoacetamide, a nonselective inhibitor of thiol-containing enzymes, was used as a positive control.
To evaluate the effect of sulfonated molecules on human FXIIIa, a bisubstrate, fluorescence-based trans-glutamination assay was performed as we reported previously.[36],[49] Generally, 1 μL of the sulfonated molecule was diluted with 87 μL of pH 7.4 buffer (50 mM Tris-HCl, 1 mM CaCl2, 100 mM NaCl, and 2 mg/mL N,N-dimethylcasein) and 5 μL dithiothreitol (20 mM) at 37 °C followed by the addition of 2 μL of human FXIIIa (0.3 μM) and incubation for 10 min. The activity of FXIIIa was monitored following the addition of 5 μL of dansylcadaverine (2 mM) by measuring the initial rate of increase in fluorescence emission (λEx. = 360 nm and λEm. = 550 nm). Relative residual FXIIIa activity at each concentration of the inhibitor was calculated from the ratio of FXIIIa activity in the presence and absence of the inhibitor. Logistic eq 1 was used to fit the concentration dependence of residual FXIIIa activity to obtain the potency (IC50) and efficacy (ΔY%) of inhibition. [drawing 1] 1
This equation defines Y as the ratio of residual FXIIIa activity with the inhibitor present compared to its absence. YM represents the maximum possible value of residual FXIIIa activity, while YO denotes the minimum possible value. IC50 signifies the concentration of the inhibitor causing 50% enzyme activity inhibition, and HS represents the Hill slope. Determination of YM, YO, IC50, and HS values is achieved through nonlinear curve fitting of the experimental data.

FXIIIa [2] = biological target: T1, FXIIIa; design: method as in PLoS One 11(7): e0160189; conditions: ref PLoS One 11(7): e0160189; cited from earlier work
normal human plasma [3] = assay: prothrombin time (PT) of normal human plasma; format: biochemical; conditions: in vitro
Experimental: (§1) To further evaluate the selectivity as well as the potential toxicity of inhibitors, we studied their effects on the clotting times of normal human plasma as well as their effects on the proliferation of three cell lines. On the one hand, the inhibitors’ effects on activated partial thromboplastin time (APTT) and prothrombin time (PT) were measured, as described earlier under in vitro conditions,[52]−[55] using variable concentrations (0–2000 μM) (Table 3). […] On the other hand, the antiproliferative properties of inhibitors 13 and 16 were evaluated in three cell lines of breast (MCF-7), intestine (CaCo-2), and kidney (HEK-293) (Figure 5B), as described earlier.[56] […] Overall, inhibitor 16 can be considered for further development as a potent, selective, and nontoxic inhibitor of human FXIIIa.
(§2) Clotting times, including activated partial thromboplastin time (APTT) and prothrombin time (PT), were assessed in normal human plasma utilizing the BBL Fibrosystem fibrometer from Becton–Dickinson, as detailed in previous publications.[51]−[54] For the PT assay, thromboplastin-D was dissolved in 4 mL of highly purified water and then warmed to 37 °C. Subsequently, 10 μL of the inhibitor was added to 90 μL of normal human plasma and incubated for 30 s. Following this, 200 μL of prewarmed PT reagent was added, and the clotting time was recorded. In the APTT assay, 10 μL of the inhibitor was combined with 90 μL of normal human plasma and 100 μL of prewarmed APTT reagent (0.2% ellagic acid). After incubation for 4 min at 37 °C, clotting was initiated by adding 100 μL of prewarmed 0.025 M CaCl2, and the clotting time was documented. Multiple concentrations of each molecule were employed in both assays to establish a concentration vs effect curve.

normal human plasma [4] = assay: activated partial thromboplastin time (APTT) of normal human plasma; format: biochemical; conditions: normal human plasma, in vitro
Experimental: as §1, §2

Row | Compound | HS (Hill slope), FXIIIa inhibition (FXIIIa [1]) | IC50 (FXIIIa [1]) | also measured
1 | O=c1c(OS(=O)(=O)O)c(-c2ccc(OS(=O)(=O)O)c(OS(=O)(=O)O)c2)oc2cc(OS(=O)(=O)O)cc(OCCOc3cc(-c4oc5cc(OS(=O)(=O)O)cc(OCCOc6cc(OS(=O)(=O)O)cc7oc(-c8ccc(OS(=O)(=O)O)c(OS(=O)(=O)O)c8)c(OS(=O)(=O)O)c(=O)c67)c5c(=O)c4OS(=O)(=O)O)ccc3OS(=O)(=O)O)c12 [compound 1, reference compound] | – | – | fold less potent than inhibitor 16 against FXIIIa (FXIIIa [1]): at least 15 fold; HS (Hill slope), FXIIIa inhibition (FXIIIa [2]): 0.9 ±0.2
2 | O=S(=O)(O)c1ccc(/N=N/c2ccc(/N=N/c3c(O)c(S(=O)(=O)O)cc4cc(S(=O)(=O)O)ccc34)c(S(=O)(=O)O)c2)cc1 [compound 17] | 1.5 ± 0.3 | 15.7 ± 2.1 µM | PT2X (concentration required to double PT) (normal human plasma [3]): 868.96 ± 91 µM; APTT2X (concentration required to double APTT) (normal human plasma [4]): 681.54 ± 65 µM
3 | Cc1ccc(C(=O)Nc2cc(S(=O)(=O)O)cc3ccc(S(=O)(=O)O)cc23)cc1NC(=O)Nc1cc(C(=O)Nc2cc(S(=O)(=O)O)cc3ccc(S(=O)(=O)O)cc23)ccc1C [compound 8] | – | > 50 µM | FXIIIa inhibition at the highest concentration tested (FXIIIa [1]): did not inhibit
4 | O=C(Nc1cccc(C(=O)Nc2cc(C(=O)Nc3ccc(S(=O)(=O)O)c4cc(S(=O)(=O)O)cc(S(=O)(=O)O)c34)ccc2F)c1)Nc1cccc(C(=O)Nc2cc(C(=O)Nc3ccc(S(=O)(=O)O)c4cc(S(=O)(=O)O)cc(S(=O)(=O)O)c34)ccc2F)c1 [compound 4] | – | > 50 µM | FXIIIa inhibition at the highest concentration tested (FXIIIa [1]): did not inhibit
5 | O=C(Nc1ccc(C(=O)Nc2ccc(C(=O)Nc3ccc(S(=O)(=O)O)c4cc(S(=O)(=O)O)cc(S(=O)(=O)O)c34)cc2)cc1)Nc1ccc(C(=O)Nc2ccc(C(=O)Nc3ccc(S(=O)(=O)O)c4cc(S(=O)(=O)O)cc(S(=O)(=O)O)c34)cc2)cc1 [compound 5] | 1.5 ± 0.8 | – | –
6 | Cc1ccc(C(=O)Nc2ccc(CP(=O)(O)O)cc2CP(=O)(O)O)cc1NC(=O)c1cccc(NC(=O)Nc2cccc(C(=O)Nc3cc(C(=O)Nc4ccc(CP(=O)(O)O)cc4CP(=O)(O)O)ccc3C)c2)c1 [compound 6] | – | > 1000 µM | –
7 | O=c1c(OS(=O)(=O)O)c(-c2ccc(OS(=O)(=O)O)c(OS(=O)(=O)O)c2)oc2cc(OS(=O)(=O)O)cc(OCCCOc3cc(-c4oc5cc(OS(=O)(=O)O)cc(OCCCOc6cc(OS(=O)(=O)O)cc7oc(-c8ccc(OS(=O)(=O)O)c(OS(=O)(=O)O)c8)c(OS(=O)(=O)O)c(=O)c67)c5c(=O)c4OS(=O)(=O)O)ccc3OS(=O)(=O)O)c12 [compound 2] | – | – | fold less potent than inhibitor 16 against FXIIIa (FXIIIa [1]): at least 15 fold; HS (Hill slope), FXIIIa inhibition (FXIIIa [2]): 1.1±0.5; IC50 (FXIIIa [2]): 118 ± 50 µM
8 | CN(c1ccc2c(O)c(/N=N/c3ccccc3S(=O)(=O)O)c(S(=O)(=O)O)cc2c1)c1nc(Cl)nc(Nc2cccc(S(=O)(=O)O)c2)n1 [compound 12] | 1.0 ± 0.1 | 23.6 ± 1.5 µM | APTT2X (concentration required to double APTT) (normal human plasma [4]): 2067.59 ± 200 µM
9 | Cc1[nH]n(-c2cc(Cl)c(S(=O)(=O)O)cc2Cl)c(=O)c1/N=N/c1cc(Nc2nc(Cl)nc(Nc3ccc(S(=O)(=O)O)cc3)n2)ccc1S(=O)(=O)O [compound 11] | 0.9 ± 0.2 | 14.7 ± 3 µM | PT2X (concentration required to double PT) (normal human plasma [3]): >1667 µM; APTT2X (concentration required to double APTT) (normal human plasma [4]): 1102.72 ± 93 ^b μM
10 | O=C(Nc1cc(C(=O)Nc2ccc(S(=O)(=O)O)cc2S(=O)(=O)O)cc(C(=O)Nc2ccc(S(=O)(=O)O)cc2S(=O)(=O)O)c1)Nc1cc(C(=O)Nc2ccc(S(=O)(=O)O)cc2S(=O)(=O)O)cc(C(=O)Nc2ccc(S(=O)(=O)O)cc2S(=O)(=O)O)c1 [compound 9] | 0.9 ± 0.2 | 286 ± 71.5 µM | –
11 | O=C(Nc1cccc(C(=O)Nc2ccc(S(=O)(=O)O)c3cc(S(=O)(=O)O)cc(S(=O)(=O)O)c23)c1)Nc1cccc(C(=O)Nc2ccc(S(=O)(=O)O)c3cc(S(=O)(=O)O)cc(S(=O)(=O)O)c23)c1 [compound 7] | 0.9 ± 0.2 | 162 ± 37.1 µM | –
12 | NC(=O)CI [Iodoacetamide, reference compound] | 0.8 ± 0.2 | ~2.9 µM and 2.9 µM | –
13 | CC(=O)Nc1ccc2cc(S(=O)(=O)O)c(/N=N/c3ccc(S(=O)(=O)CCOS(=O)(=O)O)cc3)c(O)c2c1 [compound 15] | 1.0 ± 0.3 | 16.5 ± 5.3 µM | APTT2X (concentration required to double APTT) (normal human plasma [4]): >1667 µM
14 | Cc1ccc(C(=O)Nc2ccc(S(=O)(=O)O)c3cc(S(=O)(=O)O)cc(S(=O)(=O)O)c23)cc1NC(=O)c1cccc(NC(=O)Nc2cccc(C(=O)Nc3cc(C(=O)Nc4ccc(S(=O)(=O)O)c5cc(S(=O)(=O)O)cc(S(=O)(=O)O)c45)ccc3C)c2)c1 [compound 3] | 1.0 ± 0.2 | 77.2 ± 17.1 µM | –
15 | O=C(Nc1cc(C(=O)Nc2ccc(S(=O)(=O)O)cc2)cc(C(=O)Nc2ccc(S(=O)(=O)O)cc2)c1)Nc1cc(C(=O)Nc2ccc(S(=O)(=O)O)cc2)cc(C(=O)Nc2ccc(S(=O)(=O)O)cc2)c1 [compound 10] | – | > 50 µM | FXIIIa inhibition at the highest concentration tested (FXIIIa [1]): did not inhibit
16 | O=C(Nc1ccc2c(O)cc(S(=O)(=O)O)cc2c1)Nc1ccc2c(O)cc(S(=O)(=O)O)cc2c1 [compound 23] | – | – | FXIIIa inhibition at the highest concentration tested (FXIIIa [1]): did not inhibit
